Tests used:
Assay type in all cases: in vivo
Helminthosporium maydis = test: Southern corn leaf blight control on sprayed corn seedlings (Example 83); details: Bipolaris maydis, 192 h, 100 ppm spray, day before inoculation
Procedure: The compounds of the previous examples were again dissolved in acetone in an amount equal to 6% of the final volume and then suspended at a concentration of 100 ppm in purified water containing 250 ppm of the surfactant TREM 014 (polyhydric alcohol esters). These suspensions were sprayed to the point of run-off on corn seedlings. The following day, the plants were inoculated with a spore suspension of Helminthosporium maydis, causal agent of southern corn leaf blight, and incubated in a saturated humidity chamber at 20° for 24 hours and then in a growth room for an additional 7 days, when disease ratings were made. Treated plants from successful treatments had few or no lesions while the untreated plants had numerous lesions on each leaf. Phytotoxicity expressed as growth reduction was observed on some of the plants in association with disease control.

Rhizoctonia solani = test: Rice sheath blight control on sprayed rice seedlings (Example 87); details: Rhizoctonia solani, 168 h, 100 ppm spray, day before inoculation
Procedure: The compounds of the previous examples were again dissolved in acetone in an amount equal to 6% of the final volume and then suspended at a concentration of 100 ppm in purified water containing 250 ppm of the surfactant TREM 014 (polyhydric alcohol esters). This suspension was sprayed to the point of run-off on rice seedlings. The following day, the plants were inoculated with a mixture of bran and the mycelium of Rhizoctonia solani, causal agent of sheath blight of rice, and incubated in a growth room for 7 days. Disease ratings were then made. Treated plants from successful treatments had little sheath blight in contrast to untreated plants which were covered with sheath blight.

Phytophthora infestans = test: whole plant or invertebrate; details: Phytophthora infestans, in Solanum lycopersicum, 168 h, read-out: % Control of Tomato Late Blight, 100 ppm spray, day before inoculation
Cercospora arachidicola = test: Peanut early leafspot control on sprayed peanut seedlings (Example 84); details: Mycosphaerella arachidis, 360 h, read-out: % Control Peanut Easly Leafspot; for pest or weed control at 100 ppm: 100 ppm spray, day before inoculation
Procedure: These suspensions were sprayed to the point of run-off on peanut seedlings. The following day, the plants were inoculated with a spore suspension of Cercospora arachidicola, causal agent of peanut early leafspot, and incubated in a saturated humidity chamber at 27° for 24 hours and then in a growth room for an additional 14 days, when disease ratings were made. Treated plants from successful treatments had few or no leafspots while the untreated plants had numerous leafspots.

[1] = system: Puccinia recondita var. tritici; test: Wheat leaf rust control on sprayed wheat seedlings (Example 79); details: Puccinia recondita, 168 h; for pest or weed control at 100 ppm: 100 ppm spray, day before inoculation
Procedure: The compounds of this invention were dissolved in acetone in an amount equal to 6% of the final volume and then suspended at a concentration of 100 ppm in purified water containing 250 ppm of the surfactant TREM 014 (polyhydric alcohol esters). These suspensions were sprayed to the point of run-off on wheat seedlings. The following day, the plants were inoculated with a spore suspension of Puccinia recondita var. tritici, causal agent of wheat leaf rust, and incubated in a saturated humidity chamber at 20° for 24 hours and then in a growth room for an additional 7 days, when disease ratings were made. Treated plants from successful treatments had few or no rust pustules while the untreated plants had numerous rust pustules on each leaf.

Erysiphe cichoracearum = test: Cucumber powdery mildew control on sprayed cucumber seedlings (Example 80); details: Golovinomyces cichoracearum, 168 h, 100 ppm spray, day before inoculation
Procedure: These suspensions were sprayed to the point of run-off, on cucumber seedlings. The following day, the plants were inoculated with a spore suspension of the fungus Erysiphe cichoracearum, causal agent of cucumber powdery mildew, and incubated in a growth room for 7 days. Disease ratings were then made. Treated plants from successful treatments had little or no powdery mildew in contrast to untreated plants which were covered with powdery mildew. Phytotoxicity in the form of growth reduction or hormonal effects was observed on some of the plants in association with disease control.

Venturia inaequalis = test: Apple scab control on sprayed apple seedlings (Example 82); details: Venturia inaequalis, 100 ppm spray, day before inoculation
Procedure: These suspensions were sprayed to the point of run-off on apple seedlings. The following day, the plants were inoculated with a spore suspension of the fungus Venturia inaequalis, causal agent of apple scab, and incubated in a saturated humidity chamber at 20° for 24 hours and then in a growth room for an additional 10-12 days. Treated plants from successful treatments had fewer apple scab lesions when compared to untreated plants which were covered with scab lesions. Phytotoxicity expressed as growth reduction was observed on some of the plants in association with disease control.

Pyricularia oryzae = test: whole plant or invertebrate; details: Pyricularia oryzae, 168 h, read-out: % Control of Rice Blast, 100 ppm spray, day before inoculation

SMILES | pest or weed control at 100 ppm (Helminthosporium maydis) [%] | pest or weed control at 100 ppm (Rhizoctonia solani) [%] | pest or weed control at 100 ppm (Phytophthora infestans) [%] | pest or weed control at 100 ppm (Cercospora arachidicola) [%] | pest or weed control at 100 ppm [1] [%] | pest or weed control at 100 ppm (Erysiphe cichoracearum) [%] | pest or weed control at 100 ppm (Venturia inaequalis) [%] | pest or weed control at 100 ppm (Pyricularia oryzae) [%] | pest or weed control at 20 ppm (Cercospora arachidicola; applied at 20 ppm) [%] | pest or weed control at 200 ppm ([1]; applied at 200 ppm) [%]
C[Si](O)(Cn1cncn1)c1ccc(-c2ccccc2)cc1 (centres unmarked) [(1,1'-Biphenyl-4-yl)hydroxy(methyl)(1H-1,2,4-triazol-1-ylmethyl)silane] | 0 | 0 | 0 | 100 | 90 | 100 | 100 | 0 | – | –
CC(C)O[Si](C)(Cn1cncn1)c1ccc(-c2ccccc2)cc1 (centres unmarked) [(1,1'-biphenyl-4-yl)methyl(2-propoxy)(1H-1,2,4-triazol-1-ylmethyl)silane] | 90 | 0 | 0 | 100 | 100 | 100 | 100 | 0 | – | –
CC(C)(C)O[Si](C)(Cn1cncn1)c1ccccc1 (centres unmarked) [(1,1-dimethylethoxy)methyl(phenyl)(1H-1,2,4-triazol-1-ylmethyl)silane] | 0 | 0 | 0 | 0 | 0 | 100 | 0 | 0 | – | –
C[Si](C)(Cn1cncn1)c1cc(Cl)cc(Cl)c1 [(3,5-Dichlorophenyl)dimethyl(1H-1,2,4-triazol-1-ylmethyl)silane] | 40 | 0 | 0 | 0 | 80 | 0 | 0 | 0 | – | –
C[Si](C)(Cn1cncn1)c1cccc(Cl)c1 [(3-Chlorophenyl)dimethyl(1H-1,2,4-triazol-1-ylmethyl)silane] | 0 | 0 | 0 | 0 | 0 | 0 | 60 | 0 | – | –
C[Si](C)(Cn1cncn1)c1ccc(-c2ccc(Br)cc2)cc1 [(4'-Bromo-1,1'-biphenyl-4-yl)dimethyl(1H-1,2,4-triazol-1-ylmethyl)silane] | 70 | 90 | 30 | 100 | 100 | 100 | 100 | 90 | – | –
CCCC[Si](C)(Cn1cncn1)c1ccccc1 (centres unmarked) [Butyl(methyl)phenyl(1H-1,2,4-triazol-1-ylmethyl)silane] | 0 | 90 | 0 | 0 | 0 | 100 | 80 | 90 | – | –
C[Si](C)(Cn1cncn1)c1cccc(C(F)(F)F)c1 [Dimethyl(1H-1,2,4-triazol-1-ylmethyl)(3-trifluoromethylphenyl)silane] | 0 | 0 | 0 | 0 | 0 | 100 | 0 | 0 | – | –
C[Si](C)(Cn1cncn1)c1ccc(S(C)(=O)=O)cc1 [Dimethyl(4-methylsulfonylphenyl)(1H-1,2,4-triazol-1-ylmethyl)silane] | 0 | 0 | 0 | 0 | 0 | 0 | 0 | 70 | – | –
CSc1ccc([Si](C)(C)Cn2cncn2)cc1 [Dimethyl(4-methylthiophenyl)(1H-1,2,4-triazol-1-ylmethyl)silane] | 80 | 0 | 0 | 0 | 0 | 100 | 60 | 0 | – | –
CCCCCCCCCCCCCCCCCC[Si](C)(C)Cn1cncn1 [Dimethyl(octadecyl)(1H-1,2,4-triazol-1-ylmethyl)silane] | 0 | 0 | 0 | 0 | 0 | 0 | 60 | 0 | – | –
CC(C)O[Si](C)(Cn1cncn1)c1ccccc1 (centres unmarked) [Methyl(phenyl)(2-propoxy)(1H-1,2,4-triazol-1-ylmethyl)silane] | 0 | 0 | 0 | 0 | 0 | 100 | 0 | 0 | – | –
Cc1ccc([Si](C)(Cn2cncn2)c2ccc(C)cc2)cc1 [Methyl[bis(4-methylphenyl)](1H-1,2,4-triazol-1-ylmethyl)silane] | 0 | 30 | 0 | 0 | 0 | 0 | 0 | 80 | – | –
Fc1ccc([Si](Cn2cncn2)(O[Si](Cn2cncn2)(c2ccc(F)cc2)c2ccc(F)cc2)c2ccc(F)cc2)cc1 [Oxybis[bis(4-fluorophenyl)(1H-1,2,4-triazol-1-ylmethyl)silane]] | 97 | 0 | 0 | – | 100 | 100 | 100 | 50 | 93 | –
CC(C)(C)c1ccc([Si](C)(C)Cn2cncn2)cc1 [[4-(1,1-Dimethylethyl)phenyl]dimethyl(1H-1,2,4-triazol-1-ylmethyl)silane] | 60 | 90 | 0 | 35 | – | 0 | 0 | 90 | – | 80
C[Si](Cn1cncn1)(c1ccccc1Cl)c1ccccc1Cl [[bis(2-Chlorophenyl)]methyl(1H-1,2,4-triazol-1-ylmethyl)silane] | 60 | 60 | 0 | 100 | 100 | 100 | 40 | 90 | – | –
